pIC50: −log10 of the molar value. Where two headings read alike, the source gives them in different places.
Tests used:
JAK1-JH2 domain = molecular target: T1, JAK1-JH2 domain (Homo sapiens, UniProt P23458); assay: Binding activity test for JH2 domain of JAK1 (Tb-antibody/tracer FRET); conditions: JH2 domain enzyme; 60 min at 25°C, then 4°C overnight; read-out: JAK1 JH2 Binding IC50
T1 construct: JAK1-JH2 domain or TYK2-JH2 domain enzyme in assay buffer
Procedure, shortened: (§1)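 Competitive TR-FRET binding: compounds dispensed as an 11-point 3-fold dilution series, then Tb-labelled antibody and tracer added to the JH2 protein system. Incubated at 25°C, then overnight at 4°C; FRET signal read on Envision and IC50 (nM) derived.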

[1] = test system: Ba/F3-FL-TYK2-P760L cells; assay: Anti-proliferative assay in engineered Ba/F3 cells (Cell-Titer Glo, 72 h); type: cell-based; conditions: 72 h compound treatment, concentration that causes 50% growth inhibition, read-out: Baf3-FL-T2P760L
Procedure, shortened: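 Ba/F3 cells carrying Tel-dimerization/JAK kinase fusion, IL-3-independent, in RPMI-1640 + 10% FBS; 9-point 3-fold dilutions from 20 µM (0.1% DMSO) added after 24 h, 72 h at 37 °C. Viability by Cell-Titer Glo ATP luminescence; % inhibition versus DMSO cells, blank-corrected, giving IC50.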

pSTAT1 = assay: Phosphorylation inhibition of STAT in human whole blood (IFN-alpha stimulated, flow cytometry); type: cell-based; conditions: T-cell, 20 min, IFN-alpha stimulation 20 mins, CD3 T cells, read-out: pSTAT1 inhibition in hWB (IC50)
Procedure, shortened: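 Fresh human whole blood stimulated 20 min with human universal type I IFN-alpha, then fixed, permeabilised and stained for CD3 and pSTAT1 (Y701). pSTAT1 in T cells read by flow cytometry; IC50 from 4-parameter logistic fit.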

IFNa pSTAT1 [2] = assay: Phosphorylation of STAT1 inhibition in HMC3 cells with HTRF assay; type: cell-based; conditions: Homo sapiens, HMC3 microglia cells, 50ng/mL hINFα 1 hour, read-out: HTRF_HMC3 IC 50 (IFNa pSTAT1)
Experimental: Seeding HMC3 cells into 96-well plate and incubate overnight. Pre-stimulation with recombinant human IFNα (Sino biological, H08Y), treat cells with compound with different concentration for 1hr. After compound treatment, stimulate cells with 50ng/mL hINFα for another 1 hour (for CCF-STTG1 cells IFNα induction time is 30 mins). After compound treatment and cytokine stimulation, dump old medium and lyse cells with supplemented lysis buffer provided by the HTRF kit (Revvity, 63ADK026PEG) for 30 min at room temperature under shaking. After homogenization by pipetting up and down, transfer 16 µL of cell lysate from the 96-well cell-culture plate to a small volume white 384-well plate, and then add 4 µL of pre-mixed two ready-to-use antibody working solution into each wells. Cover the plate with a plate sealer and incubate it overnight at room temperature. Read the fluorescence emission at two different wavelengths (665nm and 620nm) on microplate reader (Molecular Device, SpectraMax i3X). Collect data and analyzed with GraphPad Prism.

TYK2-JH2 domain = molecular target: T2, TYK2-JH2 domain (Homo sapiens, UniProt P29597); assay: Binding activity test for JH2 domain of TYK2 (Tb-antibody/tracer FRET); conditions: for pIC50: JH2 domain enzyme, 60 min at 25°C, then 4°C overnight, read-out: TYK2 JH2 Binding IC50; for JAK1/TYK2 selectivity: ratio of JAK1 JH2 to TYK2 JH2 binding IC50
T2 construct: JAK1-JH2 domain or TYK2-JH2 domain enzyme in assay buffer
T2 sequence (P29597 589-875 limits assumed): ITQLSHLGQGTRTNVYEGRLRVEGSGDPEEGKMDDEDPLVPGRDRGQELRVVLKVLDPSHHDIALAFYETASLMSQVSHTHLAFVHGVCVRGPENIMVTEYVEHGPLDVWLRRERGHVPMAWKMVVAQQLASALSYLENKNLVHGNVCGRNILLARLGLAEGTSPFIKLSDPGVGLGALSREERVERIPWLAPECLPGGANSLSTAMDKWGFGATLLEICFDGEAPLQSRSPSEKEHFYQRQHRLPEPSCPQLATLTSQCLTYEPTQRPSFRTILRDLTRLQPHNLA
Procedure, shortened: as §1

IFNa pSTAT1 [3] = assay: Phosphorylation of STAT1 inhibition in HMC3 cells by Jess; type: cell-based; conditions: Homo sapiens; HMC3 microglia cells, 50ng/mL hINFα 1 hour, Jess western; read-out: Jess_HMC3 IC50 (IFNa pSTAT1)
Experimental: Seeding HMC3 cells into 12-well plate and incubate overnight. Pre-stimulation with recombinant human IFNα (Sino biological, H08Y), treat cells with compound with different concentration for 1hr. After compound treatment, stimulate HMC3 cells with 50ng/mL hINFα for another 1 hour (for CCF-STTG1 cells IFNα induction time is 30 mins). And then wash cells with DPBS once gently and lyse cells with pre-cooled RIPA buffer (Sigma, R0278-500ML) for 30min on ice to harvest cells. Centrifuge cell lysate for 20 mins at 12000rpm with freezer centrifuge (Thermo Scientific, Heraeus Fresco 21) to extract protein. Prepare samples with Jess Simple Wes kit (SM-WO04) and then run western blot on Jess simple western system (Protein simple, JS-4631). Collect data and analyzed with GraphPad Prism.

[4] = Brain pharmacokinetic studies in rats; type: in vivo, Sprague-Dawley rats
Experimental: Pharmacokinetic profiles of test articles were evaluated in fasted Sprague-Dawley rats. Different kinds of formulations were designed to ensure test articles fully dissolved and wouldn't precipitate in 1:10 SGF or FaSSIF dilution. Typically, Rats were dosed with 3 mg/kg and 5 mg/kg by intravenous injection and oral gavage, respectively. The animal was restrained manually at the designated time points, approximately 150 µL of blood sample was collected via jugular vein for serial bleeding into K2EDTA tubes. The blood samples were maintained in wet ice first and centrifuged to obtain plasma (2000g, 4°C, 5 min) within 30 minutes post sampling. Anesthetizing the rat with the Isoflurane vaporizer to 2%~3% and place its back on the operation table. Spread the animal limbs and pin the limbs on the operation table. Make a cut along the sternum about 4cm long, low enough to expose the sternum's end. Expose the heart and use a 25-gauge needle connected with a 20 mL syringe filled with 20 mL of cold saline to pierce the left ventricle. Maintain the placement of the needle, and slowly push the syringe plunger to wash the brain with saline. The perfusion will be finished within about 2 min and then take the brain out of the body carefully without damaging the tissue. Dry the tissue on filtrate paper, which should be placed on ice, and then weigh the brain tissue and store at -70 °C and analyzed by LC/MS/MS for quantification. PK parameter values, including, but not necessarily limited to, the maximum plasma concentrations (Cmax), and the area under the plasma concentration vs. time curve (AUC) from time zero to 24-hour (AUC0-24h) were determined using WinNonlin program. Table 13. Systemic Pharmacokinetic Parameters in Sprague-Dawley Rats

T1 sequence (P23458 583-855 limits assumed): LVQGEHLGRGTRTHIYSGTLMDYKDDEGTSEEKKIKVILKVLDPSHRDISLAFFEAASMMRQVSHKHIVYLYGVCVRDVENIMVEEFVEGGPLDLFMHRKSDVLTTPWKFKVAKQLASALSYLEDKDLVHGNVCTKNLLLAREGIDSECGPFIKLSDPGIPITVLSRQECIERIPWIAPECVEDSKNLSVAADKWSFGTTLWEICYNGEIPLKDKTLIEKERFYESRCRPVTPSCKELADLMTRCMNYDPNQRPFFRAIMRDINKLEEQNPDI

Row | pIC50 [1] | Structure (SMILES) | pIC50 (JAK1-JH2 domain) | pIC50 ([1]; Mus musculus, BaF3, 72 h) | pIC50 (pSTAT1) | pIC50 (IFNa pSTAT1 [2]) | pIC50 (TYK2-JH2 domain) | JAK1/TYK2 selectivity (TYK2-JH2 domain) | pIC50 (IFNa pSTAT1 [3]) | half-life ([4]; Sprague-Dawley, rat, brain, rats, iv, 2 mg/kg, solution) | Kp ([4]; Sprague-Dawley, rat, brain, rats, iv, 2 mg/kg, solution, read-out: Brain AUC/Systemic AUC) | half-life ([4]; Sprague-Dawley, rat, systemic (plasma), rats, iv, 2 mg/kg, solution) | AUC ([4]; Sprague-Dawley, rat, systemic (plasma), rats, iv, 2 mg/kg, solution, read-out: AUC) | AUC ([4]; brain, rats, iv, 2 mg/kg, solution) | brain exposure in Rats ([4]; result in words)
1 | – | COCC(OC)c1ccc2c(c(Nc3cc(NC(=O)C4CC4)ncc3C(=O)OC)nn2C)c1OC (stereo not shown) [Example 159, Methyl 6-(cyclopropanecarbonylamino)-4-[[5-(1,2-dimethoxyethyl)-4-methoxy-1-methyl-indazol-3-yl]amino]pyridine-3-carboxylate] | 8.09 | 8.20 | 6.89 | 10.09 | 9.69 | 40.45 | – | – | – | – | – | – | –
2 | 9.40 | CCC(F)(F)c1cnc(NC(=O)C2CC2)cc1Nc1nn(C)c2ccc(C(O)C(F)(F)F)c(OC)c12 (single isomer, unassigned) [Example 193A, (S*)-N-(5-(1,1-Difluoropropyl)-4-((4-methoxy-1-methyl-5-(2,2,2-trifluoro-1-hydroxyethyl)-1H-indazol-3-yl)amino)pyridin-2-yl)cyclopropanecarboxamide] | – | – | – | 9.09 | 9.38 | – | 8.37 | – | – | – | – | – | –
3 | – | COC(=O)c1cnc(NC(=O)C2CC2)cc1Nc1nn(C)c2ccc(C(OC)C(F)F)c(OC)c12 (stereo not shown) [Example 68, Methyl 6-(cyclopropanecarboxamido)-4-((5-(2,2-difluoro-1-methoxyethyl)-4-methoxy-1-methyl-1H-indazol-3-yl)amino)nicotinate] | 7.79 | 8.44 | – | > 10.21 | 9.85 | 116.36 | 8.50 | – | – | – | – | – | –
4 | – | CCn1nc(Nc2cc(NC(=O)C3CC3)ncc2C(=O)OC)c2c(OC)c(C(O)C(F)(F)F)ccc21 (single isomer, unassigned) [Example 70A, Methyl (S*)-6-(cyclopropanecarboxamido)-4-((1-ethyl-4-methoxy-5-(2,2,2-trifluoro-1-hydroxyethyl)-1H-indazol-3-yl)amino)nicotinate] | 7.66 | 8.63 | 7.36 | > 10.21 | 9.82 | 145.12 | – | – | – | – | – | – | –
5 | – | [2H]C([2H])([2H])CC(=O)c1cnc(NC(=O)C2CC2)cc1Nc1nn(C)c2ccc([C@H](O)C(F)(F)F)c(OC)c12 [Example 54A, (S)-N-(4-((4-methoxy-1-methyl-5-(2,2,2-trifluoro-1-hydroxyethyl)-1H-indazol-3-yl)amino)-5-(propanoyl-3,3,3-d3)pyridin-2-yl)cyclopropanecarboxamide] | 8.42 | 9.24 | 7.97 | > 10.21 | 9.93 | 32.37 | – | 1.64 h | 0.18 | 1.7 h | 1060 ng·h/mL | 188 ng·h/g | good brain exposure
